# Data: patent US20260265771A1, “METHODS OF INCREASING THE REGENERATION EFFICIENCY IN PLANTS” (Institute of Genetics and Developmental Biology Chinese …, priority 2022, published 2026)
# “Also recorded” adds a separate entry of the source.
# What was measured:
# [1] = test system: Chinese Spring and JM22 wheat; experiment: Callus formation of wheat immature embryos on CIM; assay type: cell-based; settings: exogenous TaREF1
# Method: (a) photos of Chinese Spring wheat grown in the presence or 0 nM, 0.01 nM or 0.1 nM TaREF1. (b) immature embryos of Chinese Spring were cultured on CIM containing indicated concentrations of TaREF1, and callus phenotype was scored at 14 days after incubation on CIM. Callus formation capacity was represented by the percentage of immature embryo explants with regenerated embryonic calli. Data are mean±SD of three independent experiments.
# (§1) TaREF1 was also shown to increase the callus formation capacity of Chinese spring wheat when applied exogenously (FIG. 43) and JM22 wheat (FIG. 54).
# [2] = test system: Chinese Spring, Kn199 and JM22 wheat; experiment: Shoot regeneration of wheat; assay type: cell-based
# Method: (a) photos of Kn199 wheat grown in the presence of 0.01 nM or 1 nM TaREF1 or absence of TaREF1 (mock). (b) photos of Kn199 wheat grown in the presence of 0.01 nM or 1 nM TaREF1 or absence of TaREF1.
# as §1
# Shoot regeneration frequency was established by calculating the average number of shoots, in the context of the present invention shoot regenerative capacity refers to the number of shoots per explant in each condition.
# wheat = experiment: Root and shoot growth of wheat; assay type: in vivo; settings: 100 nM TaREF1 vs absence
# Text: (a) photos of wheat grown in the presence of 100 nm TaREF1, or in the absence of TaREF1 (mock). (b) primary root length in wheat grown in the presence of 100 nm TaREF1, or in the absence of TaREF1 (mock). (c) shoot length of wheat grown in the presence of 100 nm TaREF1, or in the absence of TaREF1 (mock).
# The wheat SIPEP (REF1) orthologue (TaREF1) was investigated to establish whether REF1 can increase the regenerative capacity in wheat.
# [3] = test system: ZH11, Nipponbare and 9311 rice; experiment: Shoot regeneration of rice on SIM; assay type: cell-based, Oryza sativa; settings: for shoot regeneration: SIM, 10 nM; for shoot regeneration capacity, increase: 10 nM OsREF1 vs absence
# Method: ZH11 was cultured on SIM containing indicated concentrations of OsREF1. (a) photos of ZH11 grown in presence of 0 nM and 10 nM OsREF1. (b) shoot regeneration capacity of ZH11 grown in with either 0 nM or 10 nM OsREF1.
# Nipponbare was cultured on SIM containing indicated concentrations of OsREF1. (a) photos of nipponbare grown in presence of 0 nM and 10 nM OsREF1. (b) shoot regeneration capacity of nipponbare grown in with either 0 nM or 10 nM OsREF1.
# 9311 rice was cultured on SIM containing indicated concentrations of OsREF1. (a) photos of 9311 rice grown in presence of 0 nM and 10 nM OsREF1. (b) shoot regeneration capacity of 9311 rice grown in with either 0 nM or 10 nM OsREF1.
# Shoot regeneration was investigated in ZH11 and Nipponbare Japonica rice as well as 9311 indica rice. OsREF1 promoted shoot generation in all three of these rice varieties.
# [4] = test system: seeds of wild allotetraploid rice L-04; experiment: Callus formation of wild allotetraploid rice seeds on CIM; assay type: cell-based; settings: for callus formation capacity, increase: vs absence
# Method: L-04 rice was grown in the presence of 10 nM or 1 nM OsREF1 or in the absence of OsREF1 (mock). (a) photos of L-04 rice grown in presence the of 10 nM, 1 nM OsREF1 or absence of OsREF1 (mock). (b) callus formation capacity of L-04 rice grown in the presence of 10 nM, 1 nM OsREF1 or absence of OsREF1 (mock).
# Seeds of wild allotetraploid rice L-04 were cultured on CIM containing indicated concentrations of OsREF1 (1 nM and 10 nM) for 20 days.
# [5] = test system: wild allotetraploid rice (L-04); experiment: Growth (primary root length) of wild allotetraploid rice; assay type: in vivo; settings: L-04, 10 nM OsREF1 vs mock
# Method: L-04 rice was grown in the presence of 10 nM OsREF1 or in the absence of OsREF1 (mock). (a) photos of L-04 rice grown in presence the of 10 nM OsREF1 or absence of OsREF1 (mock). (b) primary root length of L-04 rice grown in the presence of 10 nM OsREF1 or absence of OsREF1 (mock).
# [6] = test system: wild allotetraploid rice (L-04); experiment: Shoot regeneration of wild allotetraploid rice; assay type: cell-based
# Method: (a) images of L-04 rice grown in the presence of 10 nM OsREF1 or absence of OsREF1 (mock). (b) regeneration frequency of L-04 rice grown in the presence of 10 nM OsREF1 or absence of OsREF1.
# mature seeds of ZH11 = experiment: Callus formation of rice mature seeds on CIM; assay type: cell-based, Oryza sativa; settings: for callus formation capacity, increase: 20 days
# Method: Mature seeds of ZH11 were cultured on CIM containing indicated concentrations of OsREF1. (a) photos of ZH11 grown in presence of 1 nM and 10 nM OsREF1 or in the absence of OsREF1 (mock). (b) callus phenotype was scored 20 days after incubation on CIM. Callus formation capacity was represented by the percentage of mature seed explants with regenerated embryonic calli. Data are mean±SD of three independent experiments.
# Mature seeds of ZH11 were cultured on CIM containing indicated concentrations of OsREF1 (1 nM and 10 nM). As shown in FIG. 27A calluses formed that were larger in the presence of OsREF1 than in the absence of OsREF1.
# [7] = test system: leaves of peach cultivar GF677; experiment: Callus formation of peach leaves on CIM; assay type: cell-based
# Method: (a) photos of peach cultivar GF677 grown on a CIM in the presence of 100 nM PpREF1 and in the absence of PpREF1 (mock). (b) callus formation capacity of peach cultivar […] grown on a CIM in the presence 100 nM PpREF1 and in the absence of PpREF1 (mock) after 24 days. Callus formation capacity was represented by the percentage of leaves explants with regenerated embryonic calli. Data are mean±SD of three independent experiments.
# Leaves of peach cultivar GF677 were cultured on CIM containing indicated concentrations of PpREF1, and callus phenotype was scored at 24 days after incubation on CIM. Callus formation capacity was represented by the percentage of leaves explants with regenerated embryonic calli. Data are mean±SD of three independent experiments. Callus formation capacity was increased by 10-fold in peach cultivar GF677 leaves grown in the presence of 100 nM PpREF1 compared to leaves grown in the absence of PpREF1.
# [8] = test system: hypocotyl explants of cotton; experiment: Callus formation of cotton hypocotyl explants on CIM; assay type: cell-based
# Method: (a) photos of cotton grown in the presence of 0.1 nM, 1 nM 10 nM, 100 nM 500 nM GaREF1 or absence of GaREF1 (mock), (b) Hypocotyl explants of cotton were cultured on callus-inducing medium (CIM) containing indicated concentrations of GaREF1, and callus phenotype was scored at 14 days after incubation. Box plots represent the distribution of projected callus area. The projected area of callus was quantified by Image J. Individual values (black dots) are shown and error bars represent SD from three independent experiments. ***P<0.001, **P<0.01, *P<0.05 (Student's t-test).
# The cotton SIPEP (REF1) orthologue (GaREF1) was investigated to establish its effect on cotton regenerative capacity.
# sunflower explants = experiment: Shoot regeneration of sunflower cotyledon explants; assay type: cell-based
# Method: (A) The shoot regenerative capacity was represented by the relative frequency of explants with the regenerated shoots. (B) The shoot regenerative capacity was represented by the number of explants with different number of regenerated shoots. Bars show mean±SD. ***P<0.001, **P<0.01, *P<0.05 (Student's t-test). (C) photos of sunflower plants grown in the presence of 1 nM HaREF1, 10 nM HaREF1 or absence of HaREF1 (mock).
# The sunflower SIPEP (REF1) orthologue (HanREF1) was investigated to establish its effect on sunflower regenerative capacity.
# For the regeneration protocol we referred to Radonic et al., 2015. The explant used in the sunflower regeneration assay was cotyledon.
# Shoot regeneration frequency was established by calculating the average number of shoots, in the context of the present invention shoot regenerative capacity refers to the number of shoots per explant in each treatment.
# [9] = test system: young embryos of B104 and Chang 7-2; experiment: Shoot regeneration of maize young embryos; assay type: cell-based
# Method: Young embryos of B104 and Chang 7-2 were treated with 0, 0.1 or 1 nM of ZmREF1. For both B-104 and Chan 7-2 shoot regeneration frequency was increased when ZmREF1 was applied, for B-104 this was greatest at 1 nM, however, for Chan 7-2 this was greatest at 0.1 nM, as shown in FIG. 52.
# [10] = test system: pepper cotyledon explants; experiment: Callus formation of pepper cotyledon explants on CIM; assay type: cell-based, Capsicum annuum; settings: CIM, 0, 1 and 10 nM CaREF1
# Method: Cotyledon explants were cultured on callus-inducing medium (CIM) containing indicated concentrations of CaREF1. (a) photos of cotelydon explants grown with 0 nM, 1 nM and 10 nM CaREF1. (b) relative callus area of cotelydon explants grown with 0 nM, 1 nM and 10 nM CaREF1. Box plots represent the distribution of projected callus area. The projected area of callus was quantified by Image J. Individual values (black dots) are shown and error bars represent SD from three independent experiments. **P<0.01, *P<0.05 (Student's t-test).
# pepper roots = experiment: Root hair formation in pepper; assay type: in vivo, Capsicum annuum; settings: 0, 10 and 100 nM CaREF1
# Text: The pepper SIPEP (REF1) orthologue (CaREF1) was investigated to establish whether CaREF1 can increase the regenerative capacity of pepper (Capsicum annuum).
sequence,measurement,setting,value
AVRRPRPPGNPREGRGGGGGSHN (listed as Triticum aestivum) [TaREF1],callus formation capacity,[1]; Chinese spring wheat,increase
same,callus formation capacity,[1]; JM22 wheat,increase; also recorded: promotes callus formation
same,shoot regeneration,[2]; Chinese Spring wheat,promotes shoot regeneration
same,shoot regeneration,[2]; JM22 wheat,promotes shoot regeneration
same,shoot regeneration,[2]; Kn199 wheat,promotes shoot regeneration
same,root length,wheat,increased; also recorded: promotes root and shoot growth
same,shoot length,wheat,increased; also recorded: promotes root and shoot growth
DDSKPTGPGAPAEGSGGDGGAIH (listed as Oryza sativa) [OsREF1],shoot regeneration,[3]; 9311 indica rice,promotes shoot regeneration
same,"shoot regeneration capacity, increase",[3]; 9311 rice,~ 3.5 fold
same,shoot regeneration,[3]; Nipponbare Japonica rice,promotes shoot regeneration
same,"shoot regeneration capacity, increase",[3]; Nipponbare rice,~ 4 fold
same,shoot regeneration,[3]; ZH11 Japonica rice,promotes shoot regeneration
same,"shoot regeneration capacity, increase",[3]; ZH11 rice,~ 4 fold
same,"callus formation capacity, increase","[4]; L-04, 1 nM OsREF1, 20 days",~ 7.4 fold
same,"callus formation capacity, increase","[4]; L-04, 10 nM OsREF1, 20 days",~ 8.9 fold
same,callus formation,"[4]; L-04, 1 or 10 nM OsREF1 vs mock",promotes callus formation
same,growth,[5],promotes the growth
same,primary root length,[5],significantly increased
same,"shoot regeneration frequency, increase","[6]; L-04, 10 nM OsREF1 vs absence",~ 12.2 fold
same,shoot regeneration,"[6]; L-04, 10 nM OsREF1 vs mock",promotes shoot regeneration
same,"callus formation capacity, increase","mature seeds of ZH11; ZH11, 1 nM OsREF1 vs absence",~ 2 fold
same,"callus formation capacity, increase","mature seeds of ZH11; ZH11, 10 nM OsREF1 vs absence",~ 3 fold
same,callus formation,"mature seeds of ZH11; ZH11 Japonica rice, presence vs absence of OsREF1",larger; also recorded: promotes callus formation
KRPRITLRAARPEISTGSGAQTN (listed as Prunus persica) [PpREF1],callus formation,"[7]; GF677, 100 nM PpREF1 vs mock",promotes callus formation
same,"callus formation capacity, increase","[7]; GF677 leaves, 100 nM PpREF1 vs absence, 24 days",10 fold
LPMVSLFTPKRPGTSAGSGPQIN (listed as Gossypium arboreum) [GaREF1],"relative callus area, concentration dependence",[8]; 0.1-500 nM GaREF1,increasing as concentration of GaREF1 is increased
same,relative callus area / callus formation,"[8]; presence vs absence of GaREF1, 14 days",increased; also recorded: promotes callus formation
RRLTRRPPPPRGPISSGGGGQTN (listed as Helianthus annuus) [HanREF1],"shoot regeneration, increase",sunflower explants; 1 nM HanREF1 vs absence,~ 2.1 fold
same,"shoot regeneration, increase",sunflower explants; 10 nM HanREF1 vs absence,~ 4.5 fold
same,shoot regeneration,sunflower explants; 1 or 10 nM vs mock,promotes shoot regeneration
RRPRPRPPDHAREGSGGNGGVHH (Zea mays) [ZmREF1],concentration with greatest shoot regeneration frequency,[9]; B-104,1 nM
same,shoot regeneration frequency,"[9]; B-104 and Chan 7-2, 0.1 or 1 nM ZmREF1 vs 0",increased; also recorded: promotes shoot regeneration
same,concentration with greatest shoot regeneration frequency,[9]; Chan 7-2,0.1 nM
TGRRRGRPPSRPGVGRGPPPENN (listed as Capsicum annuum) [CaREF1],callus formation,[10],increased; also recorded: promotes callus formation
same,root hair formation,pepper roots,promotes root hair formation
